According to paper PMC8616928, “Versatile selective evolutionary pressure using synthetic defect in universal metabolism” (Nature Communications, 2021):

Legend:
[1] = target: T1, MsIRED (Myxococcus stipitatus, UniProt L7U9F5, N32D/R33V/T34R/K37R); experiment: NADH absorbance, initial rates, Michaelis-Menten with substrate inhibition; type: biochemical; settings: NADH saturating, pH 7.4, 37 °C; substrate inhibition constant
T1 construct: gene MYSTI_01767

[2] = target: T2, MsIRED (Myxococcus stipitatus, UniProt L7U9F5, N32E/R33Y/T34E/K37R/L67I/T71V); experiment: as above; type: biochemical; settings: NADH saturating, pH 7.4, 37 °C; substrate inhibition constant
T2 construct: gene MYSTI_01767

[3] = target: T3, TADH (Thermus sp. ATN1, UniProt B2ZRE3); experiment: anaerobic growth rescue of E. coli AL and 1H-NMR of broth; type: cell-based; settings: whole cells, NADH regenerated by glycolysis
T3 construct: full length, untagged, expressed from pUC19 in E. coli strain AL
T3 sequence (B2ZRE3 1-347): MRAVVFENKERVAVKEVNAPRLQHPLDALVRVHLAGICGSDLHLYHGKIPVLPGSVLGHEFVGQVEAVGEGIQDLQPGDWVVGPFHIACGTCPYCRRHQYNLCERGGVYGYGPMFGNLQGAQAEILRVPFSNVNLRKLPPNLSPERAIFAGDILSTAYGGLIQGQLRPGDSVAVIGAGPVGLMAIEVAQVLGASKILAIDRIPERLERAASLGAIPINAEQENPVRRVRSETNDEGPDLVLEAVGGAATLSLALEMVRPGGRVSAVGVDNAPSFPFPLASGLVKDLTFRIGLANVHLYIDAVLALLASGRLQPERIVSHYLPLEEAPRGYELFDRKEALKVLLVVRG

[4] = target: T4, EntNfsB (Enterobacter cloacae, UniProt Q01234, T41L/Y68L/F124L); settings: pH 7.4, 37 °C, saturating cofactor, anaerobic
T4 construct: gene nfsB

[5] = target: T5, EntNfsB (Enterobacter cloacae, UniProt Q01234); experiment: NADH absorbance, initial rates, anaerobic; type: biochemical; settings: pH 7.4, 37 °C, activity too low for kinetic parameters
T5 construct: gene nfsB; full length, C-terminal His6 (pUC19), E. coli BL21(DE3), FMN holoprotein
T5 sequence (Q01234 1-217): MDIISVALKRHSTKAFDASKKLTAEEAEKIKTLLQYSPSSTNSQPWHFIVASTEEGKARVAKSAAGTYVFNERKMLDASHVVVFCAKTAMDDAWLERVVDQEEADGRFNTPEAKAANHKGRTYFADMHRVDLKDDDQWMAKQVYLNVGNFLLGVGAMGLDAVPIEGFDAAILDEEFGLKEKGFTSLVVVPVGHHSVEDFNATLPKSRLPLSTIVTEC

[6] = target: T6, BDHA (Bacillus subtilis, UniProt O34788); experiment: anaerobic growth rescue of E. coli AL and 1H-NMR of broth; type: cell-based; settings: whole cells; endogenous acetoin reductase background
T6 construct: full length, untagged, expressed from pUC19 in E. coli strain AL
T6 sequence (O34788 1-346): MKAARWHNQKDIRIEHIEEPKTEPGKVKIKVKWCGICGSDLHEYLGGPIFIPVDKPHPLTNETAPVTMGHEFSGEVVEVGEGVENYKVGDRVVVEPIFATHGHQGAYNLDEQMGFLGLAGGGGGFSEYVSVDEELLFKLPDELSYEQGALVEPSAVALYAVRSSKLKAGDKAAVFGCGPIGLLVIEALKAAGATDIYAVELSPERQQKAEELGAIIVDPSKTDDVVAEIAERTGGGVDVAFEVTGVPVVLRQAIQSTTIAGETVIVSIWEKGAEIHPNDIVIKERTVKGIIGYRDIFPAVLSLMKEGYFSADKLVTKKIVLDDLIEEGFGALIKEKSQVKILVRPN

[7] = target: T7, BUDC (Klebsiella pneumoniae, UniProt Q48436); experiment: as above; type: cell-based; settings: whole cells; endogenous acetoin reductase background
T7 construct: full length, untagged, expressed from pUC19 in E. coli strain AL
T7 sequence (Q48436 whole entry): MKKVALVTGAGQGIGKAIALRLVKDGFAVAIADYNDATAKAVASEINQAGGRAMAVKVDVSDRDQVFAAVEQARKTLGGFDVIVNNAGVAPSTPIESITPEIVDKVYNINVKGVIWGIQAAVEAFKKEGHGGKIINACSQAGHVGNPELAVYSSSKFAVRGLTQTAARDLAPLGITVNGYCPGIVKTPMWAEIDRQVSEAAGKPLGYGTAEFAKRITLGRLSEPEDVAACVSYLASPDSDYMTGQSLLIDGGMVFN

[8] = target: T8, CBADH (Clostridium beijerinckii, UniProt P25984); experiment: NAD(P)H absorbance, initial rates; type: biochemical; settings: NADP+, pH 8.8, 37 °C
T8 construct: gene adh
T8 sequence (P25984 1-351): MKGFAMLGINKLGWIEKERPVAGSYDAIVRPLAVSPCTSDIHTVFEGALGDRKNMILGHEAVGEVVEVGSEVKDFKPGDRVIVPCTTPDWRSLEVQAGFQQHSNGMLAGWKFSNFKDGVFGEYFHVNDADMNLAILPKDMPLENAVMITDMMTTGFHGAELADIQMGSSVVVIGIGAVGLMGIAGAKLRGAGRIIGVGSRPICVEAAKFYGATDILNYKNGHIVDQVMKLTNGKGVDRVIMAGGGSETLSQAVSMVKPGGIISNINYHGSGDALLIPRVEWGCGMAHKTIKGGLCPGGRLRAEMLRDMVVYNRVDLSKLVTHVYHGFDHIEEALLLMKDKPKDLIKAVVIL

[9] = substrate: CC1=NCCC1; experiment: NADH absorbance, initial rates, Michaelis-Menten with substrate inhibition; type: biochemical, Myxococcus stipitatus; settings: NADH saturating, pH 7.4, 37 °C
[10] = substrate: O=C(O)c1ccc([N+](=O)[O-])cc1; experiment: NADH absorbance, initial rates, anaerobic, Michaelis-Menten fit; type: biochemical, Enterobacter cloacae; settings: pH 7.4, 37 °C, saturating cofactor

Molecule: CC1=NCCC1 [2-methyl-1-pyrroline]
- Ki [1]: 11.42 mM
- Ki [2]: 4.94 mM

Molecule: CC1CCCC(=O)C1 (stereo not drawn) [3-methylcyclohexanone]
- anaerobic growth rescue of E. coli AL and 1H-NMR of broth [3]: acetoin for BDHA and BUDC, and cyclohexanone or 3-methylcyclohexanone for TADH

Molecule: O=[N+]([O-])c1ccc(CO)cc1 [4-nitrobenzyl alcohol]
- Km [4]: 1110 µM
- NADH absorbance, initial rates, anaerobic [5]: it was able to reduce 4-NBA and 4-NBALC but not 2-NBA

Molecule: CC(=O)C(C)O (stereo not drawn) [acetoin]
- anaerobic growth rescue of E. coli AL and 1H-NMR of broth [6]: acetoin for BDHA and BUDC, and cyclohexanone or 3-methylcyclohexanone for TADH
- anaerobic growth rescue of E. coli AL and 1H-NMR of broth [7]: acetoin for BDHA and BUDC, and cyclohexanone or 3-methylcyclohexanone for TADH

Molecule: O=C1CCCCC1 [cyclohexanone]
- anaerobic growth rescue of E. coli AL and 1H-NMR of broth [3]: acetoin for BDHA and BUDC, and cyclohexanone or 3-methylcyclohexanone for TADH

Molecule: CC(C)O [isopropanol]
- NAD(P)H absorbance, initial rates [8]: Unlike the parent enzyme CBADHWT, purified CBADHS was unable to oxidize isopropanol using oxidized NADP

B1: MsIRED (Myxococcus stipitatus DSM 14675; K37R/N32D/R33V/T34R) (protein)
chain: MKPTLTVIGAGRMGSALIKAFLQSGYTTTVWDVRKARSEPLAKLGAHLADTVRDAVKRSDIIVVNVLDYDTSDQLLRQDEVTRELRGKLLVQLTSGSPALAREQETWARQHGIDYLDGAIMATPDFIGQAECALLYSGSAALFEKHRAVLNVLGGATSHVGEDVGHASALDSALLFQMWGTLFGTLQALAISRAEGIPLEKTTAFIKLTEPVTQGAVADVLTRVQQNRLTADAQTLASLEAHNVAFQHLLALCEERNIHRGVADAMYSVIREAVKAGHGKDDFAILTRFLK
- Km [9]: 19570 µM
- kcat [9]: 1.3 s⁻¹

B2: MsIRED (Myxococcus stipitatus DSM 14675; K37R/L67I/N32E/R33Y/T34E/T71V) (protein)
chain: MKPTLTVIGAGRMGSALIKAFLQSGYTTTVWEYEKARSEPLAKLGAHLADTVRDAVKRSDIIVVNVIDYDVSDQLLRQDEVTRELRGKLLVQLTSGSPALAREQETWARQHGIDYLDGAIMATPDFIGQAECALLYSGSAALFEKHRAVLNVLGGATSHVGEDVGHASALDSALLFQMWGTLFGTLQALAISRAEGIPLEKTTAFIKLTEPVTQGAVADVLTRVQQNRLTADAQTLASLEAHNVAFQHLLALCEERNIHRGVADAMYSVIREAVKAGHGKDDFAILTRFLK
- Km [9]: 34060 µM
- kcat [9]: 2.6862 s⁻¹

B3: EntNfsB (Enterobacter cloacae) (protein)
chain: MDIISVALKRHSTKAFDASKKLTAEEAEKIKTLLQYSPSSTNSQPWHFIVASTEEGKARVAKSAAGTYVFNERKMLDASHVVVFCAKTAMDDAWLERVVDQEEADGRFNTPEAKAANHKGRTYFADMHRVDLKDDDQWMAKQVYLNVGNFLLGVGAMGLDAVPIEGFDAAILDEEFGLKEKGFTSLVVVPVGHHSVEDFNATLPKSRLPLSTIVTEC
notes: full length, C-terminal His6 (pUC19), E. coli BL21(DE3), FMN holoprotein
- Km [10]: 141 ± 22 µM
- kcat [10]: 0.762 ± 0.0383 s⁻¹
